COC(=O)C1=C(C)NC(C)=C(C(=O)OCC(C)C)C1c1ccccc1[N+](=O)[O-] (stereo not given)
solubility (mole fraction)
Conditions	in acetonitrile	in cyclohexane	in ethanol	in ethyl acetate	in isopropanol	in n-butanol	in n-propanol	in toluene	in water
278.15 K	0.00849	–	0.00278	0.0166	0.00467	0.00573	0.00378	0.00154	4e-06
283.15 K	0.0102	5.7e-05	0.00348	0.0188	0.00563	0.00671	0.00455	0.00183	5e-06
288.15 K	0.012	7.3e-05	0.0043	0.0215	0.00669	0.00795	0.00545	0.00218	7e-06
293.15 K	0.0144	9.1e-05	0.00529	0.0246	0.00796	0.00938	0.00657	0.0026	9e-06
298.15 K	0.0169	0.000111	0.00648	0.0278	0.00935	0.0111	0.0078	0.00309	1.2e-05
303.15 K	0.0197	0.000137	0.00789	0.0316	0.011	0.0129	0.00941	0.00366	1.5e-05
308.15 K	0.0232	0.000164	0.00935	0.0358	0.0129	0.0149	0.0111	0.00428	1.9e-05
313.15 K	0.0271	0.000198	0.0112	0.0401	0.0152	0.0173	0.013	0.005	2.4e-05
318.15 K	0.0317	0.000237	0.0134	0.0457	0.0178	0.0202	0.0155	0.00588	3e-05

From BigSolDB 2.1
